Source: patent US20080171788A1, “Medicament For Irritable Bowel Syndrome” (priority 2005, published 2008)
“Also recorded” adds a separate entry of the source.

What was measured:
male Wister rats = experiment: Rat restraint stress-induced defecation model; assay type: in vivo; conditions: for evacuation suppressing action: 10 mg/kg p.o., used independently, 10 mg/kg; for number of excreted stools, comparison with the non-administration group: each of the 1, 3 and 10 mg/kg administration groups, N=10
Description: IBS-treating effect of the medicine of the invention was evaluated using a test method in which the amount of evacuations is measured by applying a restriction stress to rats (cf. J. Pharmacol. Exp. Ther. (1992) 261, 297-303). […] Each drug to be tested was administered to male Wister rats (body weight 250 to 320 g, 10 animals for each group), and a restraint stress was loaded 30 minutes thereafter. A restraint stress cage (KN-468, 265 mm in width×95 mm in length×200 mm in height, mfd. by Natsume Seisakusho, Tokyo) was used for the restraint stress loading, and the number of excreted stool was counted 1 hour after the stress loading. […] The control means the number of stools at the time of no stress loading, namely the reference value.

α1 receptor = experiment: Affinity for other receptors: α1; assay type: binding
5-HT2B receptor = 5-HT2B receptor (Homo sapiens, UniProt P41595); conditions: in comparison with 5-HT1A, 5-HT1B, 5-HT2A, 5-HT2C, 5-HT3, 5-HT6, 5-HT7, α1, M1 and D2 receptors; cited from earlier work
5-HT2B receptor, sequence (P41595 whole entry): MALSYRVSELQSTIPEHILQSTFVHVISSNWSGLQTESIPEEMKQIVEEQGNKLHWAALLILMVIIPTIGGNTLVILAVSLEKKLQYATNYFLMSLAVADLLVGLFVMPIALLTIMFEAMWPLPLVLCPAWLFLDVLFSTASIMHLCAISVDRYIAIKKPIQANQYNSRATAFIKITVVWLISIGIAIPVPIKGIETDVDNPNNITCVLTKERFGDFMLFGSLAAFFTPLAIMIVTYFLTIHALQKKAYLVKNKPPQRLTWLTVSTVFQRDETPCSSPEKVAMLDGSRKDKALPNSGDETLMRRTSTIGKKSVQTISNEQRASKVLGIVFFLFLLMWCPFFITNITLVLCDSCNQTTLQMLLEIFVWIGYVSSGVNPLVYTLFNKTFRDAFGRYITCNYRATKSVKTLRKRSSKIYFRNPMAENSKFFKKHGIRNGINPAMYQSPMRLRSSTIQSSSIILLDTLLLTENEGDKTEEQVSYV

Row | SMILES | evacuation suppressing action (male Wister rats) | number of excreted stools, comparison with the non-administration group (male Wister rats) | other results
1 | Cl.NC(N)=NC(=O)c1ccc2c(c1)C(O)c1ccccc1-2 (centres unmarked) [Production Example 3, N-(diaminomethylene)-9-hydroxy-9H-fluorene-2-carboxamide hydrochloride] | – | – | evacuation suppression action (male Wister rats; 3 mg/kg intraperitoneally (i.p.)): significant suppression action; IC50 (α1 receptor): ≥ 1000 nM
2 | CC1CCN(CC[C@H]2CCCN2S(=O)(=O)c2cccc(O)c2)CC1 [SB-269970, (R)-3-(2-(2-(4-methylpiperidine-1-yl)ethyl)pyrrolidine-1-sulfonyl)phenol] | did not show the evacuation suppressing action; also recorded: do not show the reaction | Significant difference was not found | –
3 | CC(C)c1cc(-c2ccc(F)c3ccccc23)nc(N)n1 [RS-127445, 2-amino-4-(4-fluoronaphtho-1-yl)-6-isopropylpyrimidine] | did not show the evacuation suppressing action; also recorded: do not show the reaction | Significant difference was not found | selectivity for 5-HT2B receptor (5-HT2B receptor): ≥ 1,000 times
4 | Cl.NC(N)=NC(=O)c1ccc2c(c1)C1(CCCO1)c1ccccc1-2 (single isomer, unassigned) [Production Example 60b] | – | – | evacuation suppression action (male Wister rats; 3 mg/kg (p.o.)): suppression action similar to the level of Production Example 3
